Data as given in patent US20040005537A1, “Method of identifying toxic agents using differential gene expression” (priority 2000, published 2004).

Tested on: rat heart tissue
Test: GENECALLING differential gene expression analysis after dosing of serotonin modulating agents
Assay type: in vivo, Sprague Dawley rats
Procedure: Control animals received sterile water or canola oil. The animals were sacrificed 24 hours following the last dose. Liver tissue was dissected from the animals, and total RNA was recovered from the dissected tissue. cDNA was prepared and the resulting samples were processed through using GENECALLING™ differential expression analysis as described in U.S. Pat. No. 5,871,697 and in Shimkets et al., Nature Biotechnology 17:798-803 (1999). The contents of these patents and publications are incorporated herein by reference in their entirety.
Thousands of gene fragments were initially found to be differentially expressed in rat heart tissue in response to serotonin modulating agents in. Genes fragments whose expression levels were modulated greater than ±1.5-fold were selected for further analysis.
Column 6 of Table 1, entitled “Function”, lists the type of classification assigned for the protein, based on its function. The 210 single nucleic acid sequences identified herein, are referred to herein as CARDIOTOX 1-210.

CCNC(C)Cc1cccc(C(F)(F)F)c1 (centres unmarked) [fenfluramine]
Effects on Transcription Level: Novel gene fragment, 467 bp, 94% SI to mouse gelsolin [J04953] (CARDIOTOX 70): −3.6 fold | Effects on Transcription Level: Novel gene fragment, 535 bp, 90% SI to mouse slow/cardiac troponin C [M29793] (CARDIOTOX 71): −3.7 fold | Effects on Transcription Level: Novel gene fragment, 445 bp, 85% SI to human skeletal muscle alpha 2 actinin [M86406] (CARDIOTOX 72): −2.0 fold | Effects on Transcription Level: Novel gene fragment, 246 bp, 89% SI to mouse ponsin-1 [AF078667] (CARDIOTOX 73): −2.8 fold | Effects on Transcription Level: Novel gene fragment, 126 bp, 77% SI to human DNA sequence from cosmid V311G7, between markers DXS366 and DXS87 on chromosome X [Z69304] (CARDIOTOX 74): +1.9 fold | Effects on Transcription Level: Novel gene fragment, 370 bp (CARDIOTOX 75): −3.0 fold | Effects on Transcription Level: Novel gene fragment, 337 bp, 78% SI to novel human protein AHNAK [M80899] (CARDIOTOX 76): −3.6 fold | Effects on Transcription Level: Novel gene fragment, 100 bp, 93% SI to human KIAA0750 protein [ABO18293] (CARDIOTOX 77): −9.0 fold | Effects on Transcription Level: Novel gene fragment, 44 bp (CARDIOTOX 78): −6.7 fold | Effects on Transcription Level: Novel gene fragment, 698 bp, 93% SI to mouse plenty-of-prolines-101 [AF062655] (CARDIOTOX 79): −2.5 fold | Effects on Transcription Level: Novel gene fragment, 660 bp, 84% SI to mouse membrane protein TMS-2 [AF181685] (CARDIOTOX 80): −3.7 fold | Effects on Transcription Level: Novel gene fragment, 115 bp (CARDIOTOX 81): −6.3 fold | Effects on Transcription Level: Novel gene fragment, 294 bp, 95% SI to mouse Ndr1 related protein Ndr2 [AB033921] (CARDIOTOX 82): −2.0 fold | Effects on Transcription Level: Novel gene fragment, 198 bp (CARDIOTOX 83): +2.7 fold | Effects on Transcription Level: Novel gene fragment, 730 bp, 86% SI to mouse E800 [Y10968] (CARDIOTOX 84): −2.4 fold | Effects on Transcription Level: Novel gene fragment, 294 bp, 98% SI to cysteine conjugate beta-lyase [S61960] (CARDIOTOX 85): −2.4 fold | Effects on Transcription Level: Aconitase (CARDIOTOX 86, GenBank A1243266): −3.4 fold | Effects on Transcription Level: Ribosomal protein L7 (CARDIOTOX 87, GenBank M17422): +2.5 fold | Effects on Transcription Level: Ribosomal protein L9 (CARDIOTOX 88, GenBank X51706): +11.0 fold | Effects on Transcription Level: Ribosomal protein L12 (CARDIOTOX 89, GenBank X53504): −1.5 fold | Effects on Transcription Level: 18S, 5.8S, and 28S ribosomal RNA's (CARDIOTOX 90, GenBank V01270): +6 fold | Effects on Transcription Level: Pyruvate dehydrogenase kinase 2 (PDK2) (CARDIOTOX 91, GenBank U10357): −7.7 fold | Effects on Transcription Level: D-Binding Protein (DBP) (CARDIOTOX 92, GenBank J03179): −1.9 fold | Effects on Transcription Level: Lipoprotein lipase (CARDIOTOX 93, GenBank L03294): −2.3 fold | Effects on Transcription Level: Non-neuronal enolase (CARDIOTOX 94, GenBank X02610): +3.5 fold | Effects on Transcription Level: Glycogen phosphorylase (muscle isozyme) (CARDIOTOX 95, GenBank L10669): −2.3 fold | Effects on Transcription Level: Cytochrome c oxidase subunit IV (CARDIOTOX 96, GenBank X14209): +10.0 fold | Effects on Transcription Level: Alpha-globin (CARDIOTOX 97, GenBank M17083): +3.4 fold | Effects on Transcription Level: Beta-globin (CARDIOTOX 98, GenBank X06701): +3.6 fold | Effects on Transcription Level: Myoglobin (CARDIOTOX 99, GenBank AF197916): +4.0 fold | Effects on Transcription Level: Titin (CARDIOTOX 100, GenBank L38717): −1.6 fold | Effects on Transcription Level: Skeletal muscle actin (CARDIOTOX 101, GenBank V01218): −14.9 fold | Effects on Transcription Level: Myosin light chain 2 (MLC2) (CARDIOTOX 102, GenBank M11851): +2.4 fold | Effects on Transcription Level: Alpha cardiac myosin heavy chain (CARDIOTOX 103, GenBank X15938): −7.5 fold | Effects on Transcription Level: Troponin I (CARDIOTOX 104, GenBank U77354): +1.8 fold | Effects on Transcription Level: Cardiac calsequestrin (CARDIOTOX 105, GenBank AF001334): −2.4 fold | Effects on Transcription Level: Sulfated glycoprotein 2 (CARDIOTOX 106, GenBank M16975): −1.8 fold | Effects on Transcription Level: Aquaporin 7 (CARDIOTOX 107, GenBank AB000507): +1.5 fold | Effects on Transcription Level: Carnitine/acylcarnitine carrier protein (CARDIOTOX 108, GenBank X97831): −2.6 fold | Effects on Transcription Level: Glu-Pro Dipeptide Repeat (CARDIOTOX 109, GenBank U40628): −5.6 fold | Effects on Transcription Level: Cystatin beta (CARDIOTOX 110, GenBank X54737): +2.7 fold | Effects on Transcription Level: Novel gene fragment, 593 bp, 90% SI to human calcineurin B-like protein [Z08983] (CARDIOTOX 111): +2.1 fold | Effects on Transcription Level: Novel gene fragment, 179 bp, 88% SI to human titin [X90568] (CARDIOTOX 112): −3.0 fold | Effects on Transcription Level: Novel gene fragment, 700 bp, 91% SI to mouse periplakin (PPL) [AF116523] (CARDIOTOX 113): +2.0 fold | Effects on Transcription Level: Long chain acyl-CoA dehydrogenase (LCAD) (CARDIOTOX 114, GenBank J05029): +1.8 fold | Effects on Transcription Level: Sulfated glycoprotein 1 (SGP-1) (CARDIOTOX 115, GenBank M19936): −2.0 fold | Effects on Transcription Level: Catalase (CARDIOTOX 116, GenBank M11670): +2.1 fold | Effects on Transcription Level: Alpha-fodrin (A2A) (Nonerythroid spectrin alpha subunit) (CARDIOTOX 117, GenBank AF084186): −1.8 fold | Effects on Transcription Level: Cardiac specific sodium channel alpha-subunit (CARDIOTOX 118, GenBank M27902): −2.1 fold | Effects on Transcription Level: Glu-Pro Dipeptide Repeat (CARDIOTOX 119, GenBank U40628): +4.2 fold | Effects on Transcription Level: Novel gene fragment, 200 bp, 64% SI to human KIAA0733 protein [AB018316] (CARDIOTOX 120): −1.7 fold | Effects on Transcription Level: RNA polymerase II transcription factor SIII (p18 subunit) (CARDIOTOX 121, GenBank L42855): +1.7 fold | Effects on Transcription Level: Protein-tyrosine phosphalase (LRP) (CARDIOTOX 122, GenBank L01702): +2.0 fold | Effects on Transcription Level: Skeletal muscle selenoprotein W (SelW) (CARDIOTOX 123, GenBank U25264): −1.8 fold | Effects on Transcription Level: Sarcoplasmic reticulum 2+-Ca-ATPase (CARDIOTOX 124, GenBank X15635): −1.6 fold | Effects on Transcription Level: Ribosomal protein S7 (CARDIOTOX 125, GenBank X53377): +1.0 fold | Effects on Transcription Level: Ribophorin I (CARDIOTOX 126, GenBank X05300): +1.6 fold | Effects on Transcription Level: Beta cardiac myosin heavy chain (CARDIOTOX 127, GenBank X15939): +2.3 fold | Effects on Transcription Level: ADP-ribosylation factor 1 (CARDIOTOX 128, GenBank L12380): +1.2 fold | Effects on Transcription Level: Laminin receptor (CARDIOTOX 129, GenBank U04942): +2.6 fold | Effects on Transcription Level: Novel gene fragment, 206 bp, 89% SI to human seryl-tRNA synthetase [X91257] (CARDIOTOX 130): +1.8 fold | Effects on Transcription Level: Annexin VI (CARDIOTOX 131, GenBank X86086): −1.8 fold | Effects on Transcription Level: Novel gene fragment, 325 bp, 90% SI to mouse N-RAP [U76618] (CARDIOTOX 132): +1.7 fold | Effects on Transcription Level: Novel gene fragment, 61 bp (CARDIOTOX 134) (LD10 dose for three days): −2.4 fold | Effects on Transcription Level: Novel gene fragment, 337 bp (CARDIOTOX 133) (LD10 dose for three days): −2.4 fold | Effects on Transcription Level: Novel gene fragment, 378 bp, 88% SI to human coatomer protein (COPA) [U24105] (CARDIOTOX 138) (LD10 dose for three days): −1.6 fold | Effects on Transcription Level: Long chain 3-ketoacyl-CoA thiolase (CARDIOTOX 136) (LD10 dose for three days, GenBank D16479): −1.1 fold | Effects on Transcription Level: TATA-binding protein interacting protein 120 (TIP120) (CARDIOTOX 135) (LD10 dose for three days, GenBank D87671): +1.9 fold | Effects on Transcription Level: Serine protease (CARDIOTOX 139) (LD10 dose for three days, GenBank D88250): +4.0 fold | Effects on Transcription Level: Thymosin beta-4 (CARDIOTOX 137) (LD10 dose for three days, GenBank M34043): +1.6 fold | Effects on Transcription Level: Annexin VI (no CARDIOTOX assignment given) (LD10 dose for three days, GenBank X86086): −1.7 fold
